Data from ChEMBL document CHEMBL4420076, “Amylin and calcitonin receptor agonist” (2017).
Numbered stars: 1 amine (or outer) side, 2 acyl side, 3 side chain; on linkers, the order of the positions; unused ones are H or OH. Peptide text beside a SMILES is read from it. * marks the point of attachment. C20 diacid = O=C(O)CCCCCCCCCCCCCCCCCCC(=O)*; C18 diacid = O=C(O)CCCCCCCCCCCCCCCCC(=O)*; γGlu = O=C(O)[C@H](CCC(=O)[*:2])N[*:1]

Assays:
[1] = target: T1, Amylin receptor AMY3; CALCR/RAMP3 (Homo sapiens, UniProt O60896+P30988); assay: Displacement of [125I]-labeled rat amylin from human amylin receptor expressed in BHK tkts13 whole cells co-expressing RAMP3 incubated for 60 mins by scintillation proximity assay; format: cell-based
T1 sequence (P30988 whole entry): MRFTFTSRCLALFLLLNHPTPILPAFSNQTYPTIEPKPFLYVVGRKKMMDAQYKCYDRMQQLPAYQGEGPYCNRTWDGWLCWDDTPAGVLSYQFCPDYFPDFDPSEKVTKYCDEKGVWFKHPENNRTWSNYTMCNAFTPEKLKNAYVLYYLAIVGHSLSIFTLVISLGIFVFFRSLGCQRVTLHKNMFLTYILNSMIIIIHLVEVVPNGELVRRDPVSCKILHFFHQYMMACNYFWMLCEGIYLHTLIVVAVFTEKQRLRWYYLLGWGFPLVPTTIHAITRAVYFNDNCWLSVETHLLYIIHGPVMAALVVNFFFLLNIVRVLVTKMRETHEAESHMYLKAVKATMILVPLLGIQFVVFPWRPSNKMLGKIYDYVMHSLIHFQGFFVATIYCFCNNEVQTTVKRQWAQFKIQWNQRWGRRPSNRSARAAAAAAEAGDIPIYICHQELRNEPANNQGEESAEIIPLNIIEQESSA
T1 sequence (O60896 whole entry): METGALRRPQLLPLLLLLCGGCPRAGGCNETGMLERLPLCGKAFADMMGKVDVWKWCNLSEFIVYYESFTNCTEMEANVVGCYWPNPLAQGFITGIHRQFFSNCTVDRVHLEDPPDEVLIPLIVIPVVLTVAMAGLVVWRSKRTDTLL

[2] = target: T1, Amylin receptor AMY3; CALCR/RAMP3; assay: Agonist activity at human amylin receptor expressed in BHK570 cells co-expressing RAMP3 assessed as increase in intracellular cAMP concentration incubated for 3 hrs in absence of albumin by CRE luciferase reporter gene assay; format: functional, cell-based
[3] = Solubility in 100 mM glycylglycine buffer at pH 3.0 incubated for 18 hrs by UPLC analysis; format: physicochemical
[4] = Solubility in 100 mM bistrispropane buffer at pH 6.0 incubated for 18 hrs by UPLC analysis; format: physicochemical
[5] = Solubility in 100 mM bistrispropane buffer at pH 6.5 incubated for 18 hrs by UPLC analysis; format: physicochemical
[6] = Solubility in 100 mM bistrispropane buffer at pH 7.0 incubated for 18 hrs by UPLC analysis; format: physicochemical
[7] = Solubility in 100 mM bistrispropane buffer at pH 7.5 incubated for 18 hrs by UPLC analysis; format: physicochemical
[8] = Solubility in 100 mM bistrispropane buffer at pH 8.0 incubated for 18 hrs by UPLC analysis; format: physicochemical
[9] = target: T2, Calcitonin receptor (Homo sapiens, UniProt P30988); assay: Agonist activity at human calcitonin receptor expressed in BHK570 cells assessed as increase in intracellular cAMP concentration incubated for 3 hrs in absence of albumin by CRE luciferase reporter gene assay; format: functional, cell-based
T2 sequence (P30988 whole entry): T1 sequence (P30988 whole entry)

[10] = target: T2, Calcitonin receptor; assay: Agonist activity at human calcitonin receptor expressed in BHK570 cells assessed as increase in intracellular cAMP concentration incubated for 3 hrs in presence of 10% FBS by CRE luciferase reporter gene assay; format: functional, cell-based
[11] = Solubility in 100 mM glycylglycine buffer at pH 4.0 incubated for 18 hrs by UPLC analysis; format: physicochemical

Structure (SMILES)	IC50 [1] [pM]	EC50 [2] [pM]	solubility at 18 h [3] [µM]	solubility at 18 h [4] [µM]	solubility at 18 h [5] [µM]	solubility at 18 h [6] [µM]	solubility at 18 h [7] [µM]	solubility at 18 h [8] [µM]	EC50 [9] [pM]	EC50 [10] [pM]	solubility at 18 h [11] [µM]
CC(C)C[C@H](NC(=O)[C@H](C)NC(=O)[C@H](C)NC(=O)[C@@H](NC(=O)[C@H](CO)NC(=O)[C@H](CC(C)C)NC(=O)[C@H](CCC(=O)O)NC(=O)[C@H](CO)NC(=O)[C@H](C)NC(=O)[C@@H](N)CCC(=O)O)[C@@H](C)O)C(=O)NCC(=O)N[C@@H](CCCNC(=N)N)C(=O)N[C@@H](CC(C)C)C(=O)N[C@@H](CO)C(=O)N[C@@H](C)C(=O)N[C@@H](CCC(=O)O)C(=O)N[C@@H](CC(C)C)C(=O)N[C@@H](Cc1cnc[nH]1)C(=O)N[C@@H](CCC(=O)O)C(=O)N[C@@H](CC(C)C)C(=O)N[C@@H](C)C(=O)N[C@H](C(=O)N[C@@H](CC(C)C)C(=O)N1CCC[C@H]1C(=O)N[C@@H](CCCNC(=N)N)C(=O)N[C@H](C(=O)N[C@@H](CCC(=O)O)C(=O)N[C@H](C(=O)NCC(=O)N1CCC[C@H]1C(=O)N[C@@H](CCC(=O)O)C(=O)N[C@@H](CO)C(=O)N1CCC[C@H]1C(=O)O)[C@@H](C)O)[C@@H](C)O)[C@@H](C)O (H-EASELSTAALGRLSAELHELATLPRTETGPESP-OH)	294000	–	–	–	–	–	–	–	–	–	–
CC[C@H](C)[C@H](NC(=O)[C@H](CCC(=O)O)NC(=O)[C@H](CO)NC(=O)[C@H](C)NC(=O)[C@H](CCC(=O)O)NC(=O)CCCCCCCCCCCCCCCCC(=O)O)C(=O)N[C@@H](CO)C(=O)N[C@H](C(=O)N[C@@H](C)C(=O)N[C@@H](C)C(=O)N[C@@H](CC(C)C)C(=O)NCC(=O)N[C@@H](CCCNC(=N)N)C(=O)N[C@@H](CC(C)C)C(=O)N[C@@H](CO)C(=O)N[C@@H](C)C(=O)N[C@@H](CCC(=O)O)C(=O)N[C@@H](CC(C)C)C(=O)N[C@@H](Cc1cnc[nH]1)C(=O)N[C@@H](CCC(=O)O)C(=O)N[C@@H](CC(C)C)C(=O)N[C@@H](C)C(=O)N[C@H](C(=O)N[C@@H](CC(C)C)C(=O)N1CCC[C@H]1C(=O)N[C@@H](CCCNC(=N)N)C(=O)N[C@H](C(=O)N[C@@H](CCC(=O)O)C(=O)N[C@H](C(=O)NCC(=O)N1CCC[C@H]1C(=O)N[C@@H](CCC(=O)O)C(=O)N[C@@H](CO)C(=O)N1CCC[C@H]1C(N)=O)[C@@H](C)O)[C@@H](C)O)[C@@H](C)O)[C@@H](C)O ({C18 diacid}-EASEISTAALGRLSAELHELATLPRTETGPESP-NH2)	429	7	≥ 200	≥ 200	≥ 200	≥ 200	≥ 200	≥ 200	–	–	–
CC[C@H](C)[C@H](NC(=O)[C@H](C)NC(=O)[C@@H](NC(=O)[C@H](CO)NC(=O)[C@@H](NC(=O)[C@H](CCC(=O)O)NC(=O)[C@H](CO)NC(=O)[C@H](C)NC(=O)[C@H](CCC(=O)O)NC(=O)CCCCCCCCCCCCCCCCC(=O)O)[C@@H](C)CC)[C@@H](C)O)C(=O)N[C@H](C(=O)NCC(=O)N[C@@H](CCCNC(=N)N)C(=O)N[C@@H](CC(C)C)C(=O)N[C@@H](CO)C(=O)N[C@@H](C)C(=O)N[C@@H](CCC(=O)O)C(=O)N[C@@H](CC(C)C)C(=O)N[C@@H](Cc1cnc[nH]1)C(=O)N[C@@H](CCC(=O)O)C(=O)N[C@H](C(=O)N[C@@H](C)C(=O)N[C@H](C(=O)N[C@@H](CC(C)C)C(=O)N1CCC[C@H]1C(=O)N[C@@H](CCCNC(=N)N)C(=O)N[C@H](C(=O)N[C@@H](CCC(=O)O)C(=O)N[C@H](C(=O)NCC(=O)N1CCC[C@H]1C(=O)N[C@@H](CCC(=O)O)C(=O)N[C@@H](CO)C(=O)N1CCC[C@H]1C(N)=O)[C@@H](C)O)[C@@H](C)O)[C@@H](C)O)[C@@H](C)CC)[C@@H](C)CC ({C18 diacid}-EASEISTAIIGRLSAELHEIATLPRTETGPESP-NH2)	998	10	≥ 200	≥ 200	≥ 200	≥ 200	≥ 200	≥ 200	6	–	–
CC(C)C[C@H](NC(=O)[C@H](C)NC(=O)[C@H](C)NC(=O)[C@@H](NC(=O)[C@H](CO)NC(=O)[C@H](CC(C)C)NC(=O)[C@H](CCC(=O)O)NC(=O)[C@H](CO)NC(=O)[C@H](C)NC(=O)[C@H](CCC(=O)O)NC(=O)CCCCCCCCCCCCCCCCC(=O)O)[C@@H](C)O)C(=O)NCC(=O)N[C@@H](CCCNC(=N)N)C(=O)N[C@@H](CC(C)C)C(=O)N[C@@H](CO)C(=O)N[C@@H](C)C(=O)N[C@@H](CCC(=O)O)C(=O)N[C@@H](CC(C)C)C(=O)N[C@@H](Cc1cnc[nH]1)C(=O)N[C@@H](CCC(=O)O)C(=O)N[C@@H](CC(C)C)C(=O)N[C@@H](C)C(=O)N[C@H](C(=O)N[C@@H](CC(C)C)C(=O)N1CCC[C@H]1C(=O)N[C@@H](CCCNC(=N)N)C(=O)N[C@H](C(=O)N[C@@H](CCC(=O)O)C(=O)N[C@H](C(=O)NCC(=O)N1CCC[C@H]1C(=O)N[C@@H](CCC(=O)O)C(=O)N[C@@H](CO)C(=O)N1CCC[C@H]1C(=O)O)[C@@H](C)O)[C@@H](C)O)[C@@H](C)O ({C18 diacid}-EASELSTAALGRLSAELHELATLPRTETGPESP-OH)	298000	481	–	–	–	–	–	–	45	–	–
CC(C)C[C@H](NC(=O)[C@H](C)NC(=O)[C@H](C)NC(=O)[C@@H](NC(=O)[C@H](CO)NC(=O)[C@H](CC(C)C)NC(=O)[C@H](CCC(=O)O)NC(=O)[C@H](CO)NC(=O)[C@H](C)NC(=O)CC[C@H](NC(=O)CCCCCCCCCCCCCCCCCCC(=O)O)C(=O)O)[C@@H](C)O)C(=O)NCC(=O)N[C@@H](CCCNC(=N)N)C(=O)N[C@@H](CC(C)C)C(=O)N[C@@H](CO)C(=O)N[C@@H](C)C(=O)N[C@@H](CCC(=O)O)C(=O)N[C@@H](CC(C)C)C(=O)N[C@@H](Cc1cnc[nH]1)C(=O)N[C@@H](CCC(=O)O)C(=O)N[C@@H](CC(C)C)C(=O)N[C@@H](C)C(=O)N[C@H](C(=O)N[C@@H](Cc1ccc(O)cc1)C(=O)N1CCC[C@H]1C(=O)N[C@@H](CCCNC(=N)N)C(=O)N[C@H](C(=O)N[C@@H](CCC(=O)O)C(=O)N[C@H](C(=O)NCC(=O)N[C@@H](CO)C(=O)NCC(=O)N[C@@H](CO)C(=O)N[C@@H](Cc1ccc(O)cc1)C(=O)O)[C@@H](C)O)[C@@H](C)O)[C@@H](C)O ({C20 diacid-γGlu}-ASELSTAALGRLSAELHELATYPRTETGSGSY-OH)	92000	–	≥ 200	≥ 200	≥ 200	≥ 200	≥ 200	≥ 200	–	–	–
CC(C)C[C@H](NC(=O)[C@H](C)NC(=O)[C@H](C)NC(=O)[C@@H](NC(=O)[C@H](CO)NC(=O)[C@H](CC(C)C)NC(=O)[C@H](CCC(=O)O)NC(=O)[C@H](CO)NC(=O)[C@H](C)NC(=O)CC[C@H](NC(=O)CCCCCCCCCCCCCCCCCCC(=O)O)C(=O)O)[C@@H](C)O)C(=O)NCC(=O)N[C@@H](CCCNC(=N)N)C(=O)N[C@@H](CC(C)C)C(=O)N[C@@H](CO)C(=O)N[C@@H](C)C(=O)N[C@@H](CCC(=O)O)C(=O)N[C@@H](CC(C)C)C(=O)N[C@@H](Cc1cnc[nH]1)C(=O)N[C@@H](CCC(=O)O)C(=O)N[C@@H](CC(C)C)C(=O)N[C@@H](CO)C(=O)N[C@H](C(=O)N[C@@H](Cc1ccc(O)cc1)C(=O)N1CCC[C@H]1C(=O)N[C@@H](CCCNC(=N)N)C(=O)N[C@H](C(=O)N[C@@H](CCC(=O)O)C(=O)N[C@H](C(=O)NCC(=O)N[C@@H](CO)C(=O)NCC(=O)N[C@@H](CO)C(=O)N1CCC[C@H]1C(N)=O)[C@@H](C)O)[C@@H](C)O)[C@@H](C)O ({C20 diacid-γGlu}-ASELSTAALGRLSAELHELSTYPRTETGSGSP-NH2)	–	33	≥ 200	≥ 200	≥ 200	≥ 200	≥ 200	≥ 200	27	30	≥ 200
